This is an account of results in patent publication USRE49575E1, “Method for the preparation of (4S)-4-(4-cyano-2-methoxyphenyl)-5-ethoxy-2,8-dimethyl-l,4-dihydro-1-6-naphthyridine-3-carbox-amide and the purification thereof for use as an active pharmaceutical ingredient” (Bayer Pharma Aktiengesellschaft, priority 2014, dated 2023).

What all share (format): physicochemical
A short description of data set [1]: Storage stability of polymorph I.
Data set [2] in a line: Stability and moisture absorption: storage at 85% and 97% rel. humidity, evaluated by DSC, TGA and XRPD. Particulars: for mass change: after 12 months. On the procedure:
Stability and Moisture Absorption Samples of compound of the formula (I) in crystalline form of polymorph I were stored at 85% and 97% rel. humidity (25° C.). The samples were evaluated after 12 months by DSC, TGA and XRPD. After 12 months, a mass change of <0.1% is observed in both cases. […] According to DSC, TGA and XRPD, no difference exists in compound of the formula (I) in crystalline form of polymorph I.
(In general: In DSC, transitions show as peaks or steps in heat flow.)

Data set [3] can be described thus: TGA, loss of mass on heating. Particulars: up to a temperature of 175° C. On the procedure:
No other phase transitions were observed. A loss of mass of ca. 0.1% was observed up to a temperature of 175° C.

[4] abbreviates: 85% and 97% rel. humidity (25° C.), 12 months.

SMILES strings stand for the structures.

With `CCOc1ncc(C)c2c1[C@H](c1ccc(C#N)cc1OC)C(C(N)=O)=C(C)N2` [(4S)-4-(4-cyano-2-methoxyphenyl)-5-ethoxy-2,8-dimethyl-1,4-dihydro-1,6-naphthyridine-3-carboxamide], in data set [1] (even at high atmospheric humidity), the stability properties entry was “very good stability properties”. In addition, the “storage time without any problem” value in data set [1] (solid, crystalline polymorph I) was greater than 2 years. Moreover, in data set [2] (setting [4]), the absorption of water entry is “no significant absorption of water”; the “difference according to DSC, TGA and XRPD after storage” value is on record as “no difference”. Moreover, in data set [2] (stored at 85% rel. humidity (25° C.)), the mass change is on record as less than 0.1%. Also, the mass change in data set [2] (stored at 97% rel. humidity (25° C.)) is given as less than 0.1%. In addition, the loss of mass result in data set [3] is “ca. 0.1%”.
